Measured values taken from the NIST ThermoML archive (doi:10.1021/je0602824).
± gives the expanded uncertainty stated by the source.

Assays:
[1] = 101 kPa, Liquid
[2] = xn = mol fraction of the nth substance listed; settings: 101 kPa, Liquid, x1 = 1

CCOS(=O)(=O)[O-].CCn1cc[n+](C)c1 [1-ethyl-3-methylimidazolium ethyl sulfate]
[1]
Settings	mass density [kg/m3]	viscosity [mPa·s]
278.15 K	1251.12 ± 3.3	308 ± 46
288.15 K	1244.13 ± 3.3	166 ± 17
298.15 K	1237.37 ± 3.2	95 ± 6
308.15 K	1230.61 ± 3.2	62 ± 4
318.15 K	1223.9 ± 3.1	41 ± 2
328.15 K	1217.23 ± 3	30 ± 2
338.15 K	1210.6 ± 3	21 ± 2
348.15 K	1204.01 ± 2.9	17 ± 2

CCn1cc[n+](C)c1.O=C([O-])C(F)(F)F [1-ethyl-3-methylimidazolium trifluoroacetate]
[1]
Settings	mass density [kg/m3]	viscosity [mPa·s]
278.15 K	1306.89 ± 12	78 ± 6
288.15 K	1298.81 ± 11	48 ± 3
298.15 K	1290.8 ± 11	32 ± 2
308.15 K	1282.85 ± 11	23 ± 2
318.15 K	1274.95 ± 11	17 ± 2
328.15 K	1267.12 ± 11	13 ± 2
338.15 K	1259.35 ± 11	10 ± 2
348.15 K	1251.63 ± 10	9 ± 2

CCn1cc[n+](C)c1.O=S(=O)([O-])C(F)(F)F [1-ethyl-3-methylimidazolium trifluoromethanesulfonate]
[1]
Settings	mass density [kg/m3]	viscosity [mPa·s]
278.15 K	1400.52 ± 14	96 ± 7
288.15 K	1392.04 ± 13	61 ± 4
298.15 K	1383.6 ± 13	41 ± 2
308.15 K	1375.22 ± 13	29 ± 2
318.15 K	1366.9 ± 13	21 ± 2
328.15 K	1358.63 ± 13	16 ± 2
338.15 K	1350.43 ± 12	13 ± 2
348.15 K	1342.3 ± 12	11 ± 2

O [water] + CCOS(=O)(=O)[O-].CCn1cc[n+](C)c1
[2]
Settings	mass density [kg/m3]
278.15 K	999.99 ± 0.54
308.15 K	994.06 ± 0.58
328.15 K	985.71 ± 0.63
338.15 K	980.56 ± 0.67
348.15 K	974.84 ± 0.7

O [water] + CCn1cc[n+](C)c1.O=C([O-])C(F)(F)F
[2]
Settings	mass density [kg/m3]
278.15 K	999.99 ± 0.54
308.15 K	994.06 ± 0.58
328.15 K	985.71 ± 0.63
338.15 K	980.56 ± 0.67
348.15 K	974.84 ± 0.7

O [water] + CCn1cc[n+](C)c1.O=S(=O)([O-])C(F)(F)F
[2]
Settings	mass density [kg/m3]
278.15 K	999.99 ± 0.54
308.15 K	994.06 ± 0.58
328.15 K	985.71 ± 0.63
338.15 K	980.56 ± 0.67
348.15 K	974.84 ± 0.7
